How the values were obtained:
[1] = test system: Bleomycin (BLM)-induced mice fibrosis; assay: Bleomycin induced lung fibrosis model; type: in vivo, C57BL/6 male mice; conditions: 50 mg/kg, PO, BID
Source text: Bleomycin (BLM)-induced mice fibrosis is a well-established animal model used to study pathogenesis of lung fibrosis and to estimate the potential anti-fibrotic agents. C57BL/6 male mice at 6-8 weeks of age were purchased from vivo biotech India (under the license from Taconic). The procedures involving the care and use of animals in the study was reviewed and approved by the Institutional Animal Care and Use Committee (IAEC/JDC/2018-161R) prior to conduct. During the study, the care and use of animals was in accordance with the principles outlined in the Guide for the Care and Use of Laboratory Animals, 8th Edition, 2010 (National Research Council) and every effort was made to minimize suffering. The animals were acclimatized for 7 days prior to experimental use. Mice were caged with free access to food and fresh water in a temperature-controlled room (22° C.-24° C.) on a 12 h light/dark cycle. Pulmonary fibrosis was induced by invasive method in animals using single intra-tracheal administration of 50 μg bleomycin prepared in 50 μL of saline under isoflurane anaesthesia. […] Animals were monitored and evaluated for their body weight loss. […] Fibronectin was measured as a PD biomarker by RT-qPCR and fold change in mRNA level was calculated after normalizing to GAPDH. […] The Modified Ashcroft Index score was determined for the vehicle-treated control mice and the test compound treated mice.

[2] = test system: silica induced lung fibrosis; assay: Silica induced pro-fibrotic lung model; type: in vivo, C57BL/6 female mice; conditions: 50 mg/kg PO, BID, day 7 to 11, comparable to Nintedanib 100 mg/kg, QD
Method: The instillation of silica into the murine lung results in the development of fibrotic nodules that resemble simple silicotic nodular fibrosis, which develop in humans following some occupational exposures to dust and particulate aerosols. Silica can be delivered to rodents via aerosolization, intratracheal administration or oropharyngeal aspiration. C57BL/6 female mice at an age of 6-8 weeks were instilled with silica particles (2.5 mg/mouse) by non-surgical intratracheal (IT) method. The day of silica instillation was defined as day 0. Test compound was administered twice daily and standard of care was dosed once daily from day 7 to 11 for therapeutic intervention. Animals were monitored and evaluated for their clinical signs and body weight loss. Animals were euthanized on day 11 and the lungs were weighed and biomarkers were analyzed in lung.

EMT-6 cells = assay: Murine breast cancer efficacy model, EMT-6 allograft; type: in vivo, Balb/C female mice; conditions: EMT-6 bearing mice, oral gavage twice daily for 13 days
Method: (§1) PAD4 is highly expressed in malignant tumours of various cell types, Here, the mouse mammary carcinoma of 4T1 and EMT6 cells were used as an experimental model. Mouse 4T1, and EMT-6, a breast cancer cell line was sourced from American Type Culture Collection (ATCC), USA. Cells were grown according to the product information. To establish allografts, the cells were harvested by trypsinization when they reached around 70 to 80% confluence. After harvesting, Balb/C female mice (7-8 weeks) were implanted with 4T1 (1 million cells/site) and EMT-6 (0.5 million cells/site) subcutaneously in the dorsal right flank of mice using a 1 mL BD syringe attached to a 24-gauge needle. When the tumors became palpable tumor measurement was initiated and at an approximate tumor volume of ˜110 and 93 mm3, respectively. Animals were randomized into different treatment groups keeping tumor volume and the number of animals/group similar across the groups and compound 143 treatment was initiated. […]
(§2) Tumor dimensions (length and breadth) were measured on days 1 (animal randomization based on tumor volume) and thrice weekly thereafter until study termination.
(§3) Tumor volumes were calculated using the formula (b2*1)*0.52 where 1=length, b=breadth (Dusan Djokovic et al., BMC Cancer, 2010, 10:641). […]

4T1 cells = assay: Murine breast cancer efficacy model, 4T1 allograft; type: in vivo, Balb/C female mice; conditions: 4T1 bearing mice, oral gavage twice daily for 14 days
Method: as §1, §2, §3

DSS-induced colitis = assay: Dextran sulfate sodium (DSS) induced colitis model; type: in vivo, C57BL/6 male mice; conditions: 1 mg/kg, QD, oral; day 10
Source text: Ulcerative colitis (UC) is an intermittent inflammatory bowel disease of the colonic mucosa, with periods of exacerbated symptoms (the active phase of the disease), and periods that are relatively symptom-free (remission phase of disease). Among various chemical induced colitis models, DSS-induced colitis model is widely used because of its simplicity and many similarities with human ulcerative colitis. C57BL/6 male mice at 6-8 weeks of age were purchased from vivo biotech India (under the license from Taconic). The procedures involving the care and use of animals in the study was reviewed and approved by the Institutional Animal Care and Use Committee (IAEC/JDC/2018-161R) prior to conduct. During the study, the care and use of animals was in accordance with the principles outlined in the Guide for the Care and Use of Laboratory Animals, 8th Edition, 2010 (National Research Council) and every effort was made to minimize suffering. The animals were acclimatized for ˜10 days prior to experimental use. Mice were caged with free access to food and fresh water in a temperature-controlled room (22° C.-24° C.) on a 12 h light/dark cycle. […]

Row | SMILES | Lung weight ([1]; day 0 to 14, compared with Nintedanib 100 mg/kg, QD) | Fibronectin mRNA in lung (RT-qPCR) ([1]; day 0 to 14, compared with Nintedanib) | Fibronectin level in lung [2] | Lung weight [2] | Body weight changes (EMT-6 cells) | Body weight changes (4T1 cells) | Disease reversal (DAI) compared to disease control (DSS-induced colitis) [%]
1 | N[C@@H]1CCCN(C(=O)c2cc3c4c(c2)nc(-c2cc5cccc(Cl)c5n2CC2CC2)n4CCO3)C1 [Compound 143, (R)-(3-aminopiperidin-1-yl)(2-(7-chloro-1-(cyclopropylmethyl)-1H-indol-2-yl)-3,4-dihydro-5-oxa-1,2a-diazaacenaphthylen-7-yl)methanone] | reduction in lung weight comparable to standard of care Nintedanib | stronger reduction of fibronectin mRNA as compared to Nintedanib | significant decrease | significant decrease | no significant body weight changes | no significant body weight changes | –
2 | CCCCCCCCc1ccc(CCC(N)(CO)CO)cc1 [Fingolimod] | – | – | – | – | – | – | ~58.9
